According to patent publication US20240140962A1, “5,6-DIHYDROTHIENO[3,4-H]QUINAZOLINE COMPOUND” (MEDSHINE DISCOVERY INC., priority 2021, published 2024):
Read-outs that look alike come from different tables or passages of the source. Each block holds one compound with its values, some of them ahead of it.

Legend:
[1] = Pharmacokinetic study in CD-1 male mice by oral administration and intravenous injection; type: in vivo; conditions: for Vd: read-out: Apparent volume of distribution Vdss; for AUC(0-t): read-out: Area under the plasma concentration-time curve AUC0-24 h; for clearance: read-out: Clearance CL; for half-life: read-out: Half-life T½ (converted); for Cmax: read-out: Peak concentration Cmax; for Tmax: read-out: Peak time Tmax; for bioavailability: read-out: Bioavailability F
Source text: The purpose of this experiment is to study the pharmacokinetics of the test compound in the plasma of CD-1 male mice after intravenous injection and oral administration.
Intravenous injection group: an appropriate amount of the test compound was weighed and dissolved in 20% SBE-b-CD aqueous solution and the pH was adjusted to 4 to 5 with 6 M hydrochloric acid, and the mixture was vortexed for 2, minutes to obtain a clear solution, and then pH was adjusted around 7 with 5 N sodium hydroxide, and the mixture was vortexed for 1 minute to prepare a 1.5 mg/mL clear solution, which was filtered through a 0.22 μm microporous membrane for later use. CD-1 male mice from 6 to 10 weeks old were selected and given a solution of the test compound intravenously. Samples were collected at 0.083, 0.25, 0.5, 1, 2, 4, 6, 8, and 24 hours.
Oral administration group: an appropriate amount of the test compound was weighed and dissolved in 20% SBE-b-CD aqueous solution, and the pH was adjusted to 3 to 4 with 6 M hydrochloric acid, and the mixture was vortexed for 2, minutes to obtain a clear solution, and then pH was adjusted around 7 with 5 N sodium hydroxide, and mixture was vortexed for 1 minute to prepare a 2.0 mg/mL clear solution for later use. CD-1 male mice between 6 and 10 weeks of age were selected and given the test compounds orally. Samples were collected at 0.25, 0.5, 1, 2, 4, 6, 8, 10, and 24 hours.
Approximately 50 μL of whole blood was collected through the jugular vein at each time point for plasma preparation for concentration determination by high performance liquid chromatography-tandem mass spectrometry (LC-MS/MS). All animals were euthanized under CO2 anesthesia after collecting the PK samples at the last time point. The plasma concentration was processed using the non-compartmental model of WinNonlin™ Version 6.3 (Pharsight, Mountain View, CA) pharmacokinetic software, and the pharmacokinetic parameters were calculated using the linear logarithmic trapezoidal method, and the experimental results are shown in Table 4.

[2] = tested on: human colon cancer HCT116 cells subcutaneous xenograft tumor; test: In vivo pharmacodynamic study, subcutaneous xenograft tumor model of human colon cancer HCT116 cells; design: species or system BALB/c Nude mouse; conditions: 60 mg/kg PO QD (5 days on, 2 days off), tumor volume on day 22 after dosing
Method: In this experiment, human colon cancer HCT116 cells were subcutaneously transplanted into BALB/c Nude mouse model to evaluate the antitumor effect of the test compound in vivo.
HCT116 cell culture: 10% fetal calf serum was added to McCoy's 5A medium and cultured in 37° C. 5% CO2 cell incubator. When the cell saturation reached 80% to 90% and the number reached the requirement, cells were collected, counted and inoculated subcutaneously into BALB/c Nude mice (female, 6 to 7 weeks old)
When the tumors grew to a certain size, the animals with tumor volumes that were too large, too small, or with irregular tumor shapes were eliminated, and animals with tumor volumes ranging from 103.12 to 174.35 mm^3 were selected. According to the tumor volume, the animals were divided into 6 groups by random block method, and each group was composed of 6 mice wherein the average volume of the tumor was about 147.12 mm^3 , and the experimental grouping and dosing regimen were shown in Table 5 below. The health status and death of the animals were monitored every day. Routine inspections included observation of tumor growth and the effects of drug treatment on the daily behavior of the animals, such as behavioral activities, food and water intake, body weight changes (measured twice a week), tumor size (tumor volume was measured twice a week), appearance signs or other abnormal conditions.
The formula for calculating tumor volume (TV) was: ½×a×b^2, where a and b were the measured length and width of the tumor, respectively. The formula for calculating the tumor inhibition rate TGI (%) was: TGI (%)=[1−(average tumor volume at the end of administration of a certain treatment group−average tumor volume at the beginning of administration of this treatment group)/(average tumor volume at the end of treatment of the solvent control group−average tumor volume at the beginning of treatment in solvent control group)]×100%.
In this study, the experimental data were expressed as Mean±SEM. Statistical analysis was based on the data of RTV at the end of the experiment using IBM SPSS Statistics software. The comparison between two groups was analyzed by T test, and the comparison between three or more groups was analyzed by one-way ANOVA. If the variances were homogeneous (the F value had no significant difference), the Tukey's method was used for analysis. If the variances were not homogeneous (the F value had significant differences), and the Games-Howell method was used for testing. p<0.05 was considered as a significant difference.

HCT116 cells = test: HCT116 cytological activity in vitro (3D CellTiter-Glo proliferation); type: cell-based, human; conditions: 5 days culture, ultra-low adsorption plates
Method: McCoy's 5A medium, penicillin/streptomycin antibiotics was purchased from Vicente, and fetal bovine serum was purchased from Biosera. 3D CellTiter-Glo (cell viability chemiluminescence assay reagent) reagent was purchased from Promega. HCT116 cell line was purchased from Nanjing Cobioer Biosciences Co., Ltd. Envision multimode microplate reader (PerkinElmer).
HCT116 cells were seeded in ultra-low adsorption 96-well U-plates, 80 μL of cell suspension per well, which contained 1000 HCT116 cells. Cell plates were cultured overnight in a carbon dioxide incubator.
The compound to be tested was 5-fold diluted to the 9th concentration with a pipette, that is, diluted from 2 mM to 5.12 nM, and a double-well experiment was set up. 78 μL of medium was added to the intermediate plate, and then 2 μL of each well of the gradient diluted compound was transferred to the intermediate plate according to the corresponding position, 20 μL of each well was transferred to the cell plate after mixing well. Compound concentrations transferred to cell plates ranged from 10 μM to 0.0256 nM. Cell plates were cultured in a carbon dioxide incubator for 5 days. Another cell plate was prepared, and the signal value was read as the maximum value (Max value in the following equation) on the day of drug addition to participate in data analysis.
Every 100 μL of cell viability chemiluminescent detection reagent was added to the cell plate, and incubated at room temperature for 10 minutes to stabilize the luminescent signal. A multimode microplate reader was used to read.
The equation (Sample−Min)/(Max−Min)*100% was used to convert the original data into an inhibition rate, and the value of IC50 can be obtained by curve fitting with four parameters (“log(inhibitor) vs. response in GraphPad Prism—Variable slope” mode). Table 3 provides the inhibitory activity of the compounds of the present disclosure against the proliferation of HCT116 cells.

[3] = biological target: human PLK1 protein kinase (Homo sapiens (Human), UniProt P53350); test: PLK1 kinase activity in vitro, 33P isotope-labeled kinase activity assay; type: biochemical; conditions: 33P-ATP 30 μM, substrate Casein, PLK1 12 nM
human PLK1 protein kinase, sequence (P53350 whole entry): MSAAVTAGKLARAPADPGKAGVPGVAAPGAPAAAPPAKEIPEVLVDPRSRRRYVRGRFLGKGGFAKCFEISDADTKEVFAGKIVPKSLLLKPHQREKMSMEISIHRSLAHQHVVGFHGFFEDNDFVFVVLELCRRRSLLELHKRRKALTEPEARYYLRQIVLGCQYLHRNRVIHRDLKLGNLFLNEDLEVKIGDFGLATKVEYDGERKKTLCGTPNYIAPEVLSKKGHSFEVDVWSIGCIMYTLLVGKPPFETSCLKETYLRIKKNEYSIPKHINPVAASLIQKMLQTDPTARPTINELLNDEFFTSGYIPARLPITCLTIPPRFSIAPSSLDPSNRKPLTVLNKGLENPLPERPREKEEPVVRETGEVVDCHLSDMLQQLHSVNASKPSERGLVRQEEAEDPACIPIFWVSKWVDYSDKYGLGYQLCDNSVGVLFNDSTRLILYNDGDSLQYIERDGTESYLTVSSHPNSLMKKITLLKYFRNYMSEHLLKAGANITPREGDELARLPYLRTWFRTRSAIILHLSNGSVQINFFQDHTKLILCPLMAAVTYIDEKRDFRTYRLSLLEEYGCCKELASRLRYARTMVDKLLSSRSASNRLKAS
Method: The ^33P isotope-labeled kinase activity assay (Reaction Biology Corp) was used to determine the IC50 value to evaluate the inhibitory ability of the test compound to human PLK1 protein kinase.
Buffer conditions: 20 mM HEPES (pH 7.5), 10 mM MgCl2, 1 mM EGTA, 0.01% Brij35, 0.02 mg/ml BSA, 0.1 mM Na3VO4, 2 mM DTT, 1% DMSO
Test steps: At room temperature, the compounds to be tested were dissolved in DMSO to prepare a 10 mM solution for use. The substrate Casein was dissolved in a freshly prepared buffer (with a final concentration of 20 μM), and the tested PLK1 kinase (with a final concentration of 12 nM) was added thereto and mixed well. The acoustic wave pipetting system Echo 550 was used to add the mother solution of the test compound dissolved in DMSO to the above mixed reaction mixture according to the set final concentration gradient (the highest final concentration was 1 μM, 3-fold dilution, 10 gradients). After incubation at room temperature for 20 minutes, ^33P-ATP (30 μM) was added, and after incubation at room temperature for 120 minutes, the reaction mixture was spotted on P81 ion exchange filter paper (Whatman #3698-915).

[4] = tested on: KRAS-mutant mCRC patients; conditions: cited from earlier work

SMILES: CCOc1sc(C(N)=O)c2c1-c1nc(Nc3cc(N4CCN(C)CC4)ccc3OC(F)(F)F)ncc1CC2 [Compound 2]
Vd ([1]; mouse, IV, 1.0 mg/kg, plasma): 2.89 L/kg | AUC(0-t) ([1]; mouse, IV, 1.0 mg/kg, plasma): 0.624 µM·h | clearance ([1]; mouse, IV, 1.0 mg/kg, plasma): 47.9 mL/min/kg | half-life ([1]; mouse, IV, 1.0 mg/kg, plasma): 69 min | AUC(0-t) ([1]; mouse, PO, 3.0 mg/kg, plasma): 1.02 µM·h | Cmax ([1]; mouse, PO, 3.0 mg/kg, plasma): 478 nM | Tmax ([1]; mouse, PO, 3.0 mg/kg, plasma): 45 min | bioavailability ([1]; mouse, plasma, PO 3.0 mg/kg vs IV 1.0 mg/kg): 54.2% | TGI [2]: 72.5% | IC50 (HCT116 cells; Homo sapiens, HCT-116, 120 h): 30.8 nM

SMILES: CN1CCN(c2ccc(OC(F)(F)F)c(Nc3ncc4c(n3)-c3c(SCCO)sc(C(N)=O)c3CC4)c2)CC1 [Compound 3]
IC50 [3]: 5 nM

SMILES: CSc1sc(C(N)=O)c2c1-c1nc(Nc3cc(N4CCN(C)CC4)ccc3OC(F)F)ncc1CC2 [Compound 4]
IC50 [3]: 1 nM | IC50 (HCT116 cells): 35 nM

SMILES: CN1CCN(c2ccc(OC(F)(F)F)c(Nc3ncc4c(n3)-c3c(C#N)sc(C(N)=O)c3CC4)c2)CC1 [Compound 13]
IC50 [3]: 4.9 nM

SMILES: CSc1sc(C(N)=O)c2c1-c1nc(Nc3cc(N4CC5CC(C4)N5C)ccc3OC(F)(F)F)ncc1CC2 [Compound 15]
IC50 [3]: 6.4 nM

SMILES: CN1CCN(c2ccc(OC(F)(F)F)c(Nc3ncc4c(n3)-c3c(OC5CC5)sc(C(N)=O)c3CC4)c2)CC1 [Compound 18]
Apparent volume of distribution Vdss ([1]; IV, 1.1 mg/kg, plasma): 2.38 L/kg | Area under the plasma concentration-time curve AUC0-24 h ([1]; IV, 1.1 mg/kg, plasma): 0.94 µM·h | Clearance CL ([1]; IV, 1.1 mg/kg, plasma): 31.4 mL/min/kg | Half-life T½ ([1]; IV, 1.1 mg/kg, plasma): 73.2 min | Bioavailability F ([1]; PO 3.4 mg/kg vs IV 1.1 mg/kg): 82.5% | Area under the plasma concentration-time curve AUC0-24 h ([1]; PO, 3.4 mg/kg, plasma): 2.129 µM·h | Peak time Tmax ([1]; PO, 3.4 mg/kg, plasma): 60 min | Cmax ([1]; PO, 3.4 mg/kg, plasma): 688 nM | IC50 [3]: 4.3 nM | IC50 (HCT116 cells): 74.5 nM

SMILES: CN1CCN(c2ccc(OC(F)(F)F)c(Nc3ncc4c(n3)-c3c(c(C(N)=O)nn3CCO)CC4)c2)CC1 [Onvansertib]
safety profile in clinical studies ([4]; clinical studies): acceptable safety profile | clinical benefit ([4]; share of KRAS-mutant mCRC patients, early clinical research): 88%

Further lines, with some results ahead:

IC50 [3]: 2.6 nM
SMILES: CSc1sc(C(N)=O)c2c1-c1nc(Nc3cc(N4CCN(C)CC4)ncc3OC(F)(F)F)ncc1CC2 [Compound 5]

IC50 [3]: 6.9 nM
SMILES: CN1CCN(c2ccc(OC(F)(F)F)c(Nc3ncc4c(n3)-c3c(CCO)sc(C(N)=O)c3CC4)c2)CC1 [Compound 6]

Vd ([1]; mouse, IV, 0.5 mg/kg, plasma): 2.04 L/kg | AUC(0-t) ([1]; mouse, IV, 0.5 mg/kg, plasma): 0.374 µM·h | clearance ([1]; mouse, IV, 0.5 mg/kg, plasma): 37.4 mL/min/kg | half-life ([1]; mouse, IV, 0.5 mg/kg, plasma): 44.4 min | AUC(0-t) ([1]; mouse, PO, 2.2 mg/kg, plasma): 0.459 µM·h | Cmax ([1]; mouse, PO, 2.2 mg/kg, plasma): 157 nM | Tmax ([1]; mouse, PO, 2.2 mg/kg, plasma): 45 min | bioavailability ([1]; mouse, plasma, PO 2.2 mg/kg vs IV 0.5 mg/kg): 30.9% | IC50 (HCT116 cells; Homo sapiens, HCT-116, 120 h): 52 nM
SMILES: CSc1sc(C(N)=O)c2c1-c1nc(Nc3cc(N4CCN(CCO)CC4)ccc3OC(F)(F)F)ncc1CC2 [Compound 8]
TGI [2]: 85.4%

IC50 (HCT116 cells; Homo sapiens, HCT-116, 120 h): 29.2 nM
SMILES: CN1CCN(c2ccc(OC(F)(F)F)c(Nc3ncc4c(n3)-c3c(C5CC5)sc(C(N)=O)c3CC4)c2)CC1 [Compound 16]

IC50 (HCT116 cells; Homo sapiens, HCT-116, 120 h): 18.3 nM
SMILES: COc1nnc(N2CCN(C)CC2)cc1Nc1ncc2c(n1)-c1c(SC)sc(C(N)=O)c1CC2 [Compound 17]

IC50 (HCT116 cells; Homo sapiens, HCT-116, 120 h): 58.6 nM
SMILES: CN1CCN(c2ccc(OC(F)(F)F)c(Nc3ncc4c(n3)-c3c(-c5ccco5)sc(C(N)=O)c3CC4)c2)CC1 [Compound 20]

IC50 (HCT116 cells; Homo sapiens, HCT-116, 120 h): 72 nM
SMILES: CSc1sc(C(=O)NO)c2c1-c1nc(Nc3cc(N4CCN(C)CC4)ccc3OC(F)(F)F)ncc1CC2 [Compound 23]
